The values that follow come from patent publication US20190055283A1, “AZA-PEPTIDE ALDEHYDES AND KETONES” (OHIO STATE INNOVATION FOUNDATION, priority 2016, published 2019).

The first assay has as its target T1, caspase-3 (Homo sapiens, UniProt P42574).
T1 construct: Professor Guy Salvesen, Burnham Institute (gift, not a purchase)
T1 sequence (P42574 29-175 limits assumed): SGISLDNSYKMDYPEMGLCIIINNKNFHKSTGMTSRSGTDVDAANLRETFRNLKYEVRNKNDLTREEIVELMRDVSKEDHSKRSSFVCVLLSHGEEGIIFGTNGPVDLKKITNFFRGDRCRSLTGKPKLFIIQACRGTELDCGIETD
Kind of assay: Caspase 3 inhibition kinetic assay. Format: biochemical.
Conditions: not given
The method, then:
(§1) Generally, for the 20S proteasome the enzymatic hydrolysis of fluorogenic substrate Suc-LLVY-AMC by the 20S proteasome is monitored continuously for chymotrypsin-like (CT-L) activity at λexc=360, λem=460 nm for 45 min at 30° C. under standard assay conditions (Assay buffer: pH 7.5, 20 mM Tris, 0.02% w/v SDS, 1 mM EDTA, 2% v/v DMSO). Caspase activities are measured in 100 mM HEPES, 10% sucrose, 0.1% CHAPS, 10 mM DTT, pH 7.5 and 25° C.^21 Legumain activity is measured in 0.1 M citrate-phosphate buffer at pH 6.8 containing 4 mM DTT with Cbz-AAN-AMC as the substrate^9b. Activity of the MALT1 active fragment (aa325-769) is detected by cleavage of the tetra-peptide substrate LRSR-AMC (7-amino-4-methylcoumarin) that results in fluorescence emission when AMC is released. IC50 values are determined for the new compounds by dose-dependent inhibition. In parallel, well-characterized MALT1 inhibitors (e.g. Z—VRPR-FMIK, mepazine, MI-2) are used as reference compounds. Cathepsin B activity is performed in 0.1 M phosphate, 1.25 mM EDTA, 0.01% Brij, pH 6.0. Papain activity is measured in 10 mM DTT, 50 mM phosphate, pH 6.2. Trypsin activity is performed in 0.046 M Tris/HCl buffer at pH 8.1 with 0.0115 M CaCl2.
(§2) Results from kinetic assays for compounds tested against the 20S proteasome, caspase-3, and legumain are shown in Table 4, Table 5, and Table 6, respectively.
On to `CC(=O)C(=O)N(CC(=O)O)NC(=O)[C@@H](NC(=O)[C@H](CCC(=O)O)NC(=O)[C@H](CC(=O)O)NC(=O)OCc1ccccc1)C(C)C` [Z-Asp-Glu-Val-AAsp-COMe, (5S,8S,11S)-8-(2-carboxyethyl)-5-(carboxymethyl)-11-isopropyl-3,6,9,12-tetraoxo-14-(2-oxopropanoyl)-1-phenyl-2-oxa-4,7,10,13,14-pentaazahexadecan-16-oic acid], for which inhibition was half-maximal at 0.055 µM (IC50).
Take `CC(C)[C@H](NC(=O)[C@H](CCC(=O)O)NC(=O)[C@H](CC(=O)O)NC(=O)OCc1ccccc1)C(=O)N[C@H](C=O)CC(=O)O` [Z-Asp-Glu-Val-Asp-COH, reference compound]: the IC50 came out at 0.0045 µM. Compared with the last compound, the IC50 is about 12-fold lower.

For another assay, the target named is legumain. Briefly: Legumain inhibition kinetic assay. The class given is biochemical.
Conditions: not given
The method, then: as §1, §2
Consider `C[C@H](NC(=O)OCc1ccccc1)C(=O)N[C@@H](C)C(=O)NN(CC(N)=O)C(=O)C(=O)Cc1ccccc1` [Z-Ala-Ala-AAsn-COBn, Benzyl((S)-1-(((S)-1-(2-(2-amino-2-oxoethyl)-2-(2-oxo-3-phenylpropanoyl) hydrazinyl)-1-oxopropan-2-yl)amino)-1-oxopropan-2-yl)carbamate], for which the “Ki (μM)” value is listed as “Weak”.
As to `CC(=O)C(=O)N(CC(N)=O)NC(=O)[C@H](C)NC(=O)[C@H](C)NC(=O)OCc1ccccc1` [Z-Ala-Ala-AAsn-COMe, Benzyl ((S)-1-(((S)-1-(2-(2-amino-2-oxoethyl)-2-(2-oxopropanoyl)hydrazinyl)-1-oxopropan-2-yl)amino)-1-oxopropan-2-yl)carbamate], the “Ki (μM)” value is on record as “Weak”.
As for `CCOC(=O)C(=O)N(CC(N)=O)NC(=O)[C@H](C)NC(=O)[C@H](C)NC(=O)OCc1ccccc1` [Z-Ala-Ala-AAsn-COOEt, Ethyl 2-(1-(2-amino-2-oxoethyl)-2-(((benzyloxy)carbonyl)-L-alanyl-L-alanyl)hydrazinyl)-2-oxoacetate], the “Ki (μM)” value is listed as “Weak”.

A further assay concerns the target T2, human 20S proteasome (Homo sapiens, UniProt P20618+P28074).
T2 construct: purchased
Kind of assay: Kinetic assay of 20S proteasome chymotryptic activity (Suc-LLVY-AMC). Format: biochemical. Particulars: Suc-LLVY-AMC substrate, pH 7.8, 37° C., competitive inhibition model. The protocol:
Kinetic assays were performed on a fluorescent 96-well plate reader with human 20S proteasome. Chymotryptic activity was measured in 20 mM HEPES, 0.5 mM EDTA, 0.037% SDS, pH 7.8 at 37° C., using 0-100 μM Suc-LLVY-AMC as the fluorogenic substrate, and […] 4.42×10^−4 mg/100 μL enzyme.
Triplicates of velocities (fluorescence vs time) were obtained at various concentrations of substrate ([…]) and aza-peptide inhibitor (0, 25, 50, 100 μM) then converted to specific activity using Lambert-Beer's law and enzyme concentration.
Enzyme specific activities were fit to a competitive inhibition model using GraphPad Prism software for nonlinear fitting.
The compound `CC(C)C[C@H](NC(=O)OCc1ccccc1)C(=O)N[C@@H](CC(C)C)C(=O)NN(C)C(=O)C=O` [Z-Leu-Leu-AAla-COH, Benzyl ((S)-4-methyl-1-(((S)-4-methyl-1-(2-methyl-2-(2-oxoacetyl)hydrazinyl)-1-oxopentan-2-yl)amino)-1-oxopentan-2-yl)carbamate] displayed a Ki of 44 µM. This lies in the double-digit micromolar range.
Still for that read-out and setting: the figure for `CC(=O)C(=O)N(C)NC(=O)[C@H](CC(C)C)NC(=O)[C@H](CC(C)C)NC(=O)OCc1ccccc1` [Z-Leu-Leu-AAla-COMe, Benzyl ((S)-4-methyl-1-(((S)-4-methyl-1-(2-methyl-2-(2-oxopropanoyl)hydrazinyl)-1-oxopentan-2-yl)amino)-1-oxopentan-2-yl)carbamate] is 73 µM; for `CC(C)C[C@H](NC(=O)OCc1ccccc1)C(=O)N[C@@H](CC(C)C)C(=O)NNC(=O)C=O` [Z-Leu-Leu-AGly-COH, Benzyl ((S)-4-methyl-1-(((S)-4-methyl-1-oxo-1-(2-(2-oxoacetyl)hydrazinyl)pentan-2-yl)amino)-1-oxopentan-2-yl)carbamate] it is 35 µM.
Same read-out and setting: the figure for `CC(=O)C(=O)NNC(=O)[C@H](CC(C)C)NC(=O)[C@H](CC(C)C)NC(=O)OCc1ccccc1` [Z-Leu-Leu-AGly-COMe, Benzyl((S)-4-methyl-1-(((S)-4-methyl-1-oxo-1-(2-(2-oxopropanoyl)hydrazinyl)pentan-2-yl)amino)-1-oxopentan-2-yl)carbamate] is 29 µM; for `CC(C)C[C@H](NC(=O)OCc1ccccc1)C(=O)N[C@@H](CC(C)C)C(=O)NN(CC(C)C)C(=O)C(=O)Cc1ccccc1` [Z-Leu-Leu-ALeu-COBn, Benzyl ((S)-1-(((S)-1-(2-isobutyl-2-(2-oxo-3-phenylpropanoyl)hydrazinyl)-4-methyl-1-oxopentan-2-yl)amino)-4-methyl-1-oxopentan-2-yl)carbamate] it is 81 µM.
Turning to `CC(C)C[C@H](NC(=O)OCc1ccccc1)C(=O)N[C@@H](CC(C)C)C(=O)NN(CC(C)C)C(=O)C=O` [Z-Leu-Leu-ALeu-COH, Benzyl ((S)-1-(((S)-1-(2-isobutyl-2-(2-oxoacetyl)hydrazinyl)-4-methyl-1-oxopentan-2-yl)amino)-4-methyl-1-oxopentan-2-yl)carbamate], the Ki turned out to be 24 µM.
Regarding `CC(=O)C(=O)N(CC(C)C)NC(=O)[C@H](CC(C)C)NC(=O)[C@H](CC(C)C)NC(=O)OCc1ccccc1` [Z-Leu-Leu-ALeu-COMe, Benzyl((S)-1-(((S)-1-(2-isobutyl-2-(2-oxopropanoyl)hydrazinyl)-4-methyl-1-oxopentan-2-yl)amino)-4-methyl-1-oxopentan-2-yl)carbamate], the Ki is 27 µM. This Ki and that of the compound before are within 1.5-fold of each other.
Consider `CCOC(=O)C(=O)N(CC(C)C)NC(=O)[C@H](CC(C)C)NC(=O)[C@H](CC(C)C)NC(=O)OCc1ccccc1` [Z-Leu-Leu-ALeu-COOEt, Ethyl 2-(2-(((benzyloxy)carbonyl)-L-leucyl-L-leucyl)-1-isobutylhydrazinyl)-2-oxoacetate], for which the “Ki (μM)” value is recorded as “weak”.
Regarding `CC(C)C[C@H](NC(=O)OCc1ccccc1)C(=O)N[C@@H](Cc1ccccc1)C(=O)NN(CC(C)C)C(=O)C(=O)Cc1ccccc1` [Z-Leu-Phe-ALeu-COBn, Benzyl ((S)-1-(((S)-1-(2-isobutyl-2-(2-oxo-3-phenylpropanoyl)hydrazinyl)-1-oxo-3-phenylpropan-2-yl)amino)-4-methyl-1-oxopentan-2-yl)carbamate], the Ki was 55 µM.
On the same count and under the same terms, the figure for `CC(=O)C(=O)N(CC(C)C)NC(=O)[C@H](Cc1ccccc1)NC(=O)[C@H](CC(C)C)NC(=O)OCc1ccccc1` [Z-Leu-Phe-ALeu-COMe, Benzyl((S)-1-(((S)-1-(2-isobutyl-2-(2-oxopropanoyl)hydrazinyl)-1-oxo-3-phenylpropan-2-yl)amino)-4-methyl-1-oxopentan-2-yl)carbamate] is 47 µM.

In general, IC50 refers to the point on the concentration scale where inhibition reaches its midpoint. The Ki is the equilibrium dissociation constant of an inhibitor or competing ligand from its target.
